According to patent US4264597A, “Cephalosporin analogues and processes for the preparation thereof” (priority 1978, dated 1981):
In brackets after ≈: the same amount, converted by molar mass.

Test system: T. asteroides
Assay: In vitro antimicrobial activity, two-fold agar-plate dilution method (MIC)
Assay type: cell-based
Details: overnight culture in Trypticase-soy broth (10^4-5 viable spores per ml) streaked on HI-agar, incubation at 37° C. for 20 hours
Procedure: In vitro antibacterial activity was determined by the two-fold agar-plate dilution method as described below. One loopful of an overnight culture of each test strain in Trypticase-soy broth (10^4-5 viable spores per ml) was streaked on heart infusion sugar (HI-agar) containing graded concentrations of antibiotics, and the minimal inhibitory concentration (MIC) was expressed in terms of μg/ml after incubation at 37° C. for 20 hours.

Row | Structure (SMILES) | MIC [µg/mL]
1 | O=C(COc1ccccc1)N[C@@H]1C(=O)N2C(C(=O)OCc3ccccc3)=CC(=O)S[C@H]12 [(1)] | 100 (≈ 228 µM)
2 | O=C(COc1ccccc1)N[C@@H]1C(=O)N2C(C(=O)OCc3ccccc3)=CC(=O)O[C@H]12 [(2)] | 200 (≈ 473 µM)
